Results from PubChem BioAssay (NCI).
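Dose response: 5 concentrations. Exposure: 48 h. Format: 96-well plates. Endpoint: linear interpolation; highest concentration if not reached. GI50: concentration for 50% inhibition of growth. TGI: total growth inhibition.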

How the values were obtained:
Assay in all cases: NCI tumour cell line growth inhibition, 48 h; in the data active = GI50 below about 0.43 µM; inactive = the rest
786-0 renal = tested on: 786-0 renal
A498 renal = tested on: A498 renal
A549 NSCLC = tested on: A549 NSCLC
ACHN renal = tested on: ACHN renal
BT-549 breast = tested on: BT-549 breast
CAKI-1 renal = tested on: CAKI-1 renal
CCRF-CEM leukemia = tested on: CCRF-CEM leukemia
COLO 205 colon = tested on: COLO 205 colon
DU-145 prostate = tested on: DU-145 prostate
EKVX NSCLC = tested on: EKVX NSCLC
HCC-2998 colon = tested on: HCC-2998 colon
HCT-116 colon = tested on: HCT-116 colon
HCT-15 colon = tested on: HCT-15 colon
HL-60(TB) leukemia = tested on: HL-60(TB) leukemia
HOP-92 NSCLC = tested on: HOP-92 NSCLC
HS 578T breast = tested on: HS 578T breast
HT29 colon = tested on: HT29 colon
IGROV1 ovarian = tested on: IGROV1 ovarian
K-562 leukemia = tested on: K-562 leukemia
KM12 colon = tested on: KM12 colon
LOX IMVI melanoma = tested on: LOX IMVI melanoma
M14 melanoma = tested on: M14 melanoma
MALME-3M melanoma = tested on: MALME-3M melanoma
MCF7 breast = tested on: MCF7 breast
MDA-MB-231 breast = tested on: MDA-MB-231 breast
MDA-MB-435 = tested on: MDA-MB-435
MOLT-4 leukemia = tested on: MOLT-4 leukemia
NCI-H226 lung = tested on: NCI-H226 lung
NCI-H23 lung = tested on: NCI-H23 lung
NCI-H460 lung = tested on: NCI-H460 lung
NCI-H522 lung = tested on: NCI-H522 lung
NCI/ADR-RES ovarian = tested on: NCI/ADR-RES ovarian
OVCAR-3 ovarian = tested on: OVCAR-3 ovarian
OVCAR-4 ovarian = tested on: OVCAR-4 ovarian
OVCAR-5 ovarian = tested on: OVCAR-5 ovarian
OVCAR-8 ovarian = tested on: OVCAR-8 ovarian
PC-3 prostate = tested on: PC-3 prostate
RPMI-8226 leukemia = tested on: RPMI-8226 leukemia
SF-268 CNS = tested on: SF-268 CNS
SF-295 CNS = tested on: SF-295 CNS
SF-539 CNS = tested on: SF-539 CNS
SK-MEL-2 melanoma = tested on: SK-MEL-2 melanoma
SK-MEL-28 melanoma = tested on: SK-MEL-28 melanoma
SK-MEL-5 melanoma = tested on: SK-MEL-5 melanoma
SK-OV-3 ovarian = tested on: SK-OV-3 ovarian
SN12C renal = tested on: SN12C renal
SNB-19 CNS = tested on: SNB-19 CNS
SNB-75 CNS = tested on: SNB-75 CNS
SW-620 colon = tested on: SW-620 colon
T-47D breast = tested on: T-47D breast
TK-10 renal = tested on: TK-10 renal
U251 CNS = tested on: U251 CNS
UACC-257 melanoma = tested on: UACC-257 melanoma
UACC-62 melanoma = tested on: UACC-62 melanoma
UO-31 renal = tested on: UO-31 renal
HOP-62 NSCLC = tested on: HOP-62 NSCLC
RXF 393 renal = tested on: RXF 393 renal
SR leukemia = tested on: SR leukemia

CC1(C)CC(=O)C(CC2C(=O)c3ccccc3C2=O)C(=O)C1C(=O)C(=O)Nc1cccc2ccc(O)cc12 (stereo not given)
> 100 µM: TGI (786-0 renal) | TGI (A549 NSCLC) | TGI (ACHN renal) | TGI (BT-549 breast) | TGI (CAKI-1 renal) | TGI (CCRF-CEM leukemia) | TGI (COLO 205 colon) | TGI (DU-145 prostate) | TGI (EKVX NSCLC) | TGI (HCC-2998 colon) | TGI (HCT-116 colon) | TGI (HCT-15 colon) | TGI (HL-60(TB) leukemia) | TGI (HOP-92 NSCLC) | TGI (HS 578T breast) | TGI (HT29 colon) | TGI (IGROV1 ovarian) | TGI (K-562 leukemia) | TGI (KM12 colon) | TGI (LOX IMVI melanoma) | TGI (M14 melanoma) | TGI (MALME-3M melanoma) | TGI (MCF7 breast) | TGI (MDA-MB-231 breast) | TGI (MDA-MB-435) | TGI (MOLT-4 leukemia) | TGI (NCI-H226 lung) | TGI (NCI-H23 lung) | TGI (NCI-H460 lung) | TGI (NCI-H522 lung) | TGI (NCI/ADR-RES ovarian) | TGI (OVCAR-3 ovarian) | TGI (OVCAR-4 ovarian) | TGI (OVCAR-5 ovarian) | TGI (OVCAR-8 ovarian) | TGI (PC-3 prostate) | TGI (RPMI-8226 leukemia) | TGI (SF-268 CNS) | TGI (SF-295 CNS) | TGI (SF-539 CNS) | TGI (SK-MEL-2 melanoma) | TGI (SK-MEL-28 melanoma) | TGI (SK-MEL-5 melanoma) | TGI (SK-OV-3 ovarian) | TGI (SN12C renal) | TGI (SNB-19 CNS) | TGI (SNB-75 CNS) | TGI (SW-620 colon) | TGI (T-47D breast) | TGI (TK-10 renal) | TGI (U251 CNS) | TGI (UACC-257 melanoma) | TGI (UACC-62 melanoma) | TGI (UO-31 renal)
69.8 µM: TGI (A498 renal)

CC1=C(S(=O)c2ccc(C)cc2)CCC2(CCCCO2)O1 (stereo not given)
> 100 µM: TGI (786-0 renal) | TGI (A498 renal) | TGI (ACHN renal) | TGI (BT-549 breast) | TGI (CAKI-1 renal) | TGI (COLO 205 colon) | TGI (DU-145 prostate) | TGI (EKVX NSCLC) | TGI (HCC-2998 colon) | TGI (HCT-116 colon) | TGI (HCT-15 colon) | TGI (HL-60(TB) leukemia) | TGI (HOP-62 NSCLC) | TGI (HS 578T breast) | TGI (HT29 colon) | TGI (IGROV1 ovarian) | TGI (K-562 leukemia) | TGI (KM12 colon) | TGI (LOX IMVI melanoma) | TGI (MALME-3M melanoma) | TGI (MCF7 breast) | TGI (MDA-MB-231 breast) | TGI (MDA-MB-435) | TGI (MOLT-4 leukemia) | TGI (NCI-H226 lung) | TGI (NCI-H23 lung) | TGI (NCI-H460 lung) | TGI (NCI-H522 lung) | TGI (NCI/ADR-RES ovarian) | TGI (OVCAR-3 ovarian) | TGI (OVCAR-4 ovarian) | TGI (OVCAR-5 ovarian) | TGI (OVCAR-8 ovarian) | TGI (PC-3 prostate) | TGI (RPMI-8226 leukemia) | TGI (RXF 393 renal) | TGI (SF-268 CNS) | TGI (SF-295 CNS) | TGI (SK-MEL-2 melanoma) | TGI (SK-MEL-28 melanoma) | TGI (SK-MEL-5 melanoma) | TGI (SN12C renal) | TGI (SNB-19 CNS) | TGI (SNB-75 CNS) | TGI (SW-620 colon) | TGI (T-47D breast) | TGI (TK-10 renal) | TGI (U251 CNS) | TGI (UACC-257 melanoma) | TGI (UACC-62 melanoma) | TGI (UO-31 renal)

Cc1ccc2c(n1)C(=O)C(Cl)=C(Nc1ccc(N3CCN(C)CC3)cc1)C2=O
2.87 µM: TGI (OVCAR-4 ovarian)
4.78 µM: TGI (NCI-H522 lung)
32.3 µM: TGI (SF-295 CNS)
3.46 µM: TGI (MDA-MB-435)
inactive: GI50 (786-0 renal) 1710 nM | GI50 (A498 renal) 12.8 µM | GI50 (A549 NSCLC) 14.6 µM | GI50 (ACHN renal) 1750 nM | GI50 (BT-549 breast) 1610 nM | GI50 (CAKI-1 renal) 1680 nM | GI50 (CCRF-CEM leukemia) 3.07 µM | GI50 (COLO 205 colon) 1770 nM | GI50 (DU-145 prostate) 1760 nM | GI50 (EKVX NSCLC) 1730 nM | GI50 (HCC-2998 colon) 4.54 µM | GI50 (HCT-116 colon) 1670 nM | GI50 (HCT-15 colon) 1840 nM | GI50 (HL-60(TB) leukemia) 2220 nM | GI50 (HOP-62 NSCLC) 3.63 µM | GI50 (HOP-92 NSCLC) 1680 nM | GI50 (HS 578T breast) 2470 nM | GI50 (HT29 colon) 2190 nM | GI50 (IGROV1 ovarian) 1870 nM | GI50 (K-562 leukemia) 2720 nM | GI50 (KM12 colon) 10.2 µM | GI50 (LOX IMVI melanoma) 1780 nM | GI50 (M14 melanoma) 1840 nM | GI50 (MALME-3M melanoma) 1620 nM | GI50 (MCF7 breast) 2040 nM | GI50 (MDA-MB-231 breast) 1730 nM | GI50 (MDA-MB-435) 1880 nM | GI50 (MOLT-4 leukemia) 2370 nM | GI50 (NCI-H226 lung) 1770 nM | GI50 (NCI-H23 lung) 1790 nM | GI50 (NCI-H460 lung) 3.74 µM | GI50 (NCI-H522 lung) 1860 nM | GI50 (NCI/ADR-RES ovarian) 3.09 µM | GI50 (OVCAR-3 ovarian) 1630 nM | GI50 (OVCAR-4 ovarian) 1500 nM | GI50 (OVCAR-5 ovarian) 1820 nM | GI50 (OVCAR-8 ovarian) 1850 nM | GI50 (PC-3 prostate) 1570 nM | GI50 (RPMI-8226 leukemia) 2680 nM | GI50 (RXF 393 renal) 1670 nM | GI50 (SF-268 CNS) 1890 nM | GI50 (SF-295 CNS) 18 µM | GI50 (SF-539 CNS) 1740 nM | GI50 (SK-MEL-2 melanoma) 1870 nM | GI50 (SK-MEL-28 melanoma) 1880 nM | GI50 (SK-MEL-5 melanoma) 1720 nM | GI50 (SK-OV-3 ovarian) 13 µM | GI50 (SN12C renal) 1720 nM | GI50 (SNB-19 CNS) 9.46 µM | GI50 (SNB-75 CNS) 2110 nM | GI50 (SR leukemia) 2780 nM | GI50 (SW-620 colon) 2010 nM | GI50 (TK-10 renal) 1950 nM | GI50 (U251 CNS) 1790 nM | GI50 (UACC-257 melanoma) 1700 nM | GI50 (UACC-62 melanoma) 1710 nM | GI50 (UO-31 renal) 1630 nM
3.25 µM: TGI (DU-145 prostate)
15.7 µM: TGI (NCI-H460 lung)
4.13 µM: TGI (SF-268 CNS)
3.12 µM: TGI (EKVX NSCLC) | TGI (UACC-62 melanoma)
30 µM: TGI (A549 NSCLC)
5.17 µM: TGI (MCF7 breast)
2.98 µM: TGI (UO-31 renal)
4.52 µM: TGI (SW-620 colon)
56.4 µM: TGI (CCRF-CEM leukemia)
25.6 µM: TGI (A498 renal)
3.1 µM: TGI (786-0 renal) | TGI (SK-MEL-5 melanoma) | TGI (SN12C renal)
3.11 µM: TGI (UACC-257 melanoma)
25.8 µM: TGI (SK-OV-3 ovarian)
3.56 µM: TGI (SK-MEL-2 melanoma)
3.31 µM: TGI (SK-MEL-28 melanoma)
5.78 µM: TGI (MOLT-4 leukemia)
14.7 µM: TGI (HOP-62 NSCLC)
3.22 µM: TGI (LOX IMVI melanoma) | TGI (SF-539 CNS)
3.75 µM: TGI (NCI-H23 lung)
3.93 µM: TGI (HCT-15 colon)
2.97 µM: TGI (BT-549 breast)
3.19 µM: TGI (HCT-116 colon) | TGI (MDA-MB-231 breast) | TGI (U251 CNS)
21.7 µM: TGI (SNB-19 CNS)
7.49 µM: TGI (HS 578T breast)
3.21 µM: TGI (HOP-92 NSCLC)
3.32 µM: TGI (M14 melanoma)
3.16 µM: TGI (PC-3 prostate)
3.13 µM: TGI (ACHN renal) | TGI (OVCAR-3 ovarian)
3.05 µM: TGI (RXF 393 renal)
17.5 µM: TGI (HCC-2998 colon)
3.34 µM: TGI (OVCAR-5 ovarian)
3.38 µM: TGI (NCI-H226 lung)
9.45 µM: TGI (NCI/ADR-RES ovarian)
9.06 µM: TGI (SR leukemia)
4.89 µM: TGI (HL-60(TB) leukemia)
8.92 µM: TGI (K-562 leukemia)
23.5 µM: TGI (KM12 colon)
7.28 µM: TGI (RPMI-8226 leukemia)
4.92 µM: TGI (HT29 colon)
3.4 µM: TGI (OVCAR-8 ovarian)
3.27 µM: TGI (COLO 205 colon)
3.08 µM: TGI (CAKI-1 renal)
8.53 µM: TGI (SNB-75 CNS)
3.42 µM: TGI (TK-10 renal)
3.6 µM: TGI (IGROV1 ovarian)
2.99 µM: TGI (MALME-3M melanoma)
